Measurements reported in US5348946A, “Heteroanthracycline antitumor analogs” (Biochem Immunosystems, Inc., priority 1991, dated 1994).

Columns and labels:
Format in all cases: cell-based
SK-MEL-5 = test: in vitro cytotoxicity evaluation, Melanoma; conditions: Homo sapiens, 48 h, SK-MEL-5, two days, sulforhodamine B
Description: (§1) These assays were carried out at the Developmental Therapeutics Program, Division of Cancer Treatment, National Cancer Institute (Bethesda, Md., USA). The method consists of incubating varying concentrations of the drug with an inoculum of cells for two days.
(§2) It should be noted that the first two parameters (GI50 and TGI) relate to antiproliferation effects while the third one (LC50) indicates true cytotoxicity.

LOX IMVI = test: in vitro cytotoxicity evaluation, Melanoma; conditions: Homo sapiens, 48 h, two days, sulforhodamine B
Description: as §1, §2

UACC-62 = test: in vitro cytotoxicity evaluation, Melanoma; conditions: Homo sapiens, 48 h, UACC-62, two days, sulforhodamine B
Description: as §1, §2

MALME-3M = test: in vitro cytotoxicity evaluation, Melanoma; conditions: Homo sapiens, 48 h, two days, sulforhodamine B
Description: as §1, §2

UACC-257 = test: in vitro cytotoxicity evaluation, Melanoma; conditions: Homo sapiens, 48 h, UACC-257, two days, sulforhodamine B
Description: as §1, §2

M14 = test: in vitro cytotoxicity evaluation, Melanoma; conditions: Homo sapiens, 48 h, M14, two days, sulforhodamine B
Description: as §1, §2

M19-MEL = test: in vitro cytotoxicity evaluation, Melanoma; conditions: Homo sapiens, 48 h, two days, sulforhodamine B
Description: as §1, §2

SK-MEL-28 = test: in vitro cytotoxicity evaluation, Melanoma; conditions: Homo sapiens, 48 h, SK-MEL-28, two days, sulforhodamine B
Description: as §1, §2

SK-MEL-2 = test: in vitro cytotoxicity evaluation, Melanoma; conditions: Homo sapiens, 48 h, SK-MEL-2, two days, sulforhodamine B
Description: as §1, §2

DMS 114 = test: in vitro cytotoxicity evaluation, Small Cell Lung Cancer; conditions: Homo sapiens, 48 h, DMS 114, two days, sulforhodamine B
Description: BCH-255 (compound 39) was subjected to an in vitro cytotoxicity evaluation against 59 tumor cell lines to assess its potential as an anticancer drug. These assays were carried out at the Developmental Therapeutics Program, Division of Cancer Treatment, National Cancer Institute (Bethesda, Md., USA). The method consists of incubating varying concentrations of the drug with an inoculum of cells for two days. At the end of the assay, the number of viable cells is estimated with a dye, sulforhodamine B. The protocol is described in M. R. Boyd, "Status of the NCI Preclinical Antitumor Drug Discovery Screen", Principles and Practices of Oncology, 3, pp. 1-12, 1989.
There are three parameters calculated: GI50, the log molar concentration of drug required to inhibit cell growth by 50%; TGI, the log molar concentration of drug required to completely block cell growth; LC50, the log molar concentration of drug required to reduce the original cell number by 50%. It should be noted that the first two parameters (GI50 and TGI) relate to antiproliferation effects while the third one (LC50) indicates true cytotoxicity.

K-562 = test: in vitro cytotoxicity evaluation, Leukemia; conditions: Homo sapiens, K562, 48 h, K-562, two days, sulforhodamine B
Description: as §1, §2

LXFL-529L = test: in vitro cytotoxicity evaluation, Non-Small Cell Lung Cancer; conditions: Homo sapiens, 48 h, two days, sulforhodamine B
Description: as §1, §2

NCI=H322M = test: as above; conditions: Homo sapiens, 48 h, two days, sulforhodamine B
Description: as §1, §2

NCI-H522 = test: as above; conditions: Homo sapiens, 48 h, NCI-H522, two days, sulforhodamine B
Description: as §1, §2

NCI-H23 = test: as above; conditions: Homo sapiens, 48 h, NCI-H23, two days, sulforhodamine B
Description: as §1, §2

FKVX = test: as above; conditions: Homo sapiens, 48 h, two days, sulforhodamine B
Description: as §1, §2

NCI-H460 = test: as above; conditions: Homo sapiens, 48 h, NCI-H460, two days, sulforhodamine B
Description: as §1, §2

HOP-18 = test: as above; conditions: Homo sapiens, 48 h, HOP-18, two days, sulforhodamine B
Description: as §1, §2

A-549/ATCC = test: as above; conditions: Homo sapiens, A549, 48 h, two days, sulforhodamine B
Description: as §1, §2

NCI-H226 = test: as above; conditions: Homo sapiens, 48 h, NCI-H226, two days, sulforhodamine B
Description: as §1, §2

[1] = read-out: LOG10 G150 (GI50) (converted)
[2] = read-out: Log10 LC50 (converted)
[3] = read-out: Log10 TGI (converted)

COc1c2c(c(OC)c3c(=O)c4ccccc4sc13)CS(=O)(=O)[C@@H]2O[C@H]1C[C@H](N)[C@H](O)[C@H](C)O1 [BCH-255, (1S ) 1-daunosamine-4-11-dimethoxy-5-oxo-5-H-1,3-dihydrothioxantheno [2,3-c] thiophene-2,2-dioxide]
GI50 (SK-MEL-5; [1]): 18.2 µM | CC50 (SK-MEL-5; [2]): 57.5 µM | IC (total growth inhibition (TGI)) (SK-MEL-5; [3]): 32.4 µM | GI50 (LOX IMVI; [1]): 17.8 µM | CC50 (LOX IMVI; [2]): 81.3 µM | IC (total growth inhibition (TGI)) (LOX IMVI; [3]): 38 µM | GI50 (UACC-62; [1]): 19.1 µM | CC50 (UACC-62; [2]): 74.1 µM | IC (total growth inhibition (TGI)) (UACC-62; [3]): 37.2 µM | GI50 (MALME-3M; [1]): 20 µM | CC50 (MALME-3M; [2]): 67.6 µM | IC (total growth inhibition (TGI)) (MALME-3M; [3]): 36.3 µM | GI50 (UACC-257; [1]): 22.4 µM | CC50 (UACC-257; [2]): 85.1 µM | IC (total growth inhibition (TGI)) (UACC-257; read-out: Log10 TGI): 43.7 µM | GI50 (M14; [1]): 18.2 µM | CC50 (M14; [2]): 60.3 µM | IC (total growth inhibition (TGI)) (M14; [3]): 33.1 µM | GI50 (M19-MEL; [1]): 18.2 µM | CC50 (M19-MEL; [2]): 67.6 µM | IC (total growth inhibition (TGI)) (M19-MEL; [3]): 34.7 µM | GI50 (SK-MEL-28; [1]): 18.2 µM | CC50 (SK-MEL-28; [2]): 67.6 µM | IC (total growth inhibition (TGI)) (SK-MEL-28; [3]): 34.7 µM | GI50 (SK-MEL-2; [1]): 19.1 µM | CC50 (SK-MEL-2; [2]): 70.8 µM | IC (total growth inhibition (TGI)) (SK-MEL-2; [3]): 36.3 µM | GI50 (DMS 114; [1]): 17.8 µM | IC (total growth inhibition (TGI)) (DMS 114; [3]): 37.2 µM | GI50 (K-562; [1]): 16.2 µM | CC50 (K-562; [2]): 83.2 µM | IC (total growth inhibition (TGI)) (K-562; [3]): 36.3 µM | GI50 (LXFL-529L; [1]): 17 µM | CC50 (LXFL-529L; [2]): 57.5 µM | IC (total growth inhibition (TGI)) (LXFL-529L; [3]): 31.6 µM | GI50 (NCI=H322M; [1]): 19.1 µM | CC50 (NCI=H322M; [2]): 100 µM | IC (total growth inhibition (TGI)) (NCI=H322M; read-out: Log10 TGI): 43.7 µM | GI50 (NCI-H522; [1]): 18.6 µM | CC50 (NCI-H522; [2]): 77.6 µM | IC (total growth inhibition (TGI)) (NCI-H522; [3]): 38 µM | GI50 (NCI-H23; [1]): 50.1 µM | CC50 (NCI-H23; [2]): > 100 µM | IC (total growth inhibition (TGI)) (NCI-H23; read-out: Log10 TGI): > 100 µM | GI50 (FKVX; [1]): 25.7 µM | CC50 (FKVX; [2]): 93.3 µM | IC (total growth inhibition (TGI)) (FKVX; [3]): 49 µM | GI50 (NCI-H460; [1]): 20.4 µM | LC50 (concentration killing 50% of cells) (NCI-H460; [2]): 79.4 µM | IC (total growth inhibition (TGI)) (NCI-H460; [3]): 39.8 µM | GI50 (HOP-18; read-out: LOG10 G150 (GI50)): > 100 µM | CC50 (HOP-18; [2]): > 100 µM | IC (total growth inhibition (TGI)) (HOP-18; read-out: Log10 TGI): > 100 µM | GI50 (A-549/ATCC; [1]): 19.5 µM | CC50 (A-549/ATCC; [2]): 69.2 µM | IC (total growth inhibition (TGI)) (A-549/ATCC; [3]): 36.3 µM | GI50 (NCI-H226; [1]): 20 µM | CC50 (NCI-H226; [2]): 83.2 µM | IC (total growth inhibition (TGI)) (NCI-H226; [3]): 40.7 µM
